# Measurements from US9879050B2, “Substituted urea depsipeptide analogs as activators of the CLPP endopeptidase” (priority 2013, dated 2018).
# Like-named read-outs stand apart in the source and are kept apart here. *1 amine or outer side, *2 acyl side, *3 side chain or, on linkers, in order; H or OH if unused. Where a SMILES comes first, the peptide text is derived from it. Bridges are numbered along the chain shown (N, C = ends). [ ]: non-standard residue; d: D form. The star is where a group is joined. ξ: configuration not given here. Phe(3,5-F2) = N[C@@H](Cc1cc(F)cc(F)c1)C(=O)O; NH(4-OCF3-phenyl) = FC(F)(F)Oc1ccc(N*)cc1; ξPro(4S-Me) = C[C@@H]1CNC(C(=O)O)C1; aThr = C[C@H](O)[C@H](N)C(=O)O; X1 = O=C(C1COCCN1[*:1])[*:2]; CO = O=C([*:1])[*:2]; ξP = O=C(O)C1CCCN1
# Experiments:
# Sa-ClpP [1] = target: T1, Sa-ClpP (Staphylococcus aureus, UniProt Q2G036); assay: ClpP activation, EnzCheck Protease Assay with Bodipy-FL casein (second described method); type: biochemical, S. aureus
# T1 construct: made in house; host or cells: E. coli BL21 (DE3)
# Protocol: Alternatively, the assay was carried out using EnzCheck Protease Assay (Molecular Probes, Catalog #E6638). The assay was performed in black 384 well, flat bottom, low volume plates (Greiner Bio-One, Monroe, N.C., catalog #784076). 10 μL of Tris.HCl buffer, pH 8.0 with 0.01% Triton X-100 was pipetted into each well using a Well-Mate (Thermo Scientific, Waltham, Mass.). 0.4 μL test compounds or controls (2% DMSO v/v) were added to each well using a Biomek FX liquid handling robot (Beckman Coulter, Indianapolis Ind.). After addition of test compounds and controls, 10 μL of master mix containing 2 μM Sa-ClpP and 2 μM substrate (Bodipy-FL labeled casein) in Tris*HCl buffer, pH 8.0 with 0.01% (v/v) Triton X-100, was pipetted into each well. All assays were performed in triplicate, under linear velocity conditions. Increase in fluorescent signal following activation of Sa-ClpP by test compounds and controls was measured over time period of 30 mins using filters with excitation at 485±15 nm and emission at 520±25 nm on a PHERAstar FS Multilabel reader (BMG, Cary, N.C.). […] Data analysis was done by measuring rate of casein degradation over time (slopes). Computed degradation rates (slopes) were normalized to positive (ADEP4) or negative (DMSO) controls. Using nonlinear regression curve fitting EC50 values and % activation were determined using the equation “log [agonist]vs. Response-variable slope (four parameters)-symmetrical” in the program Prism 6 (GraphPad Software, La Jolla, Calif. USA, www.graphpad.com).
# Sa-ClpP [2] = target: T1, Sa-ClpP; assay: ADEP displacement fluorescence polarization assay; type: binding, S. aureus
# Protocol: A fluorescence polarization (FP) assay was used to determine the activity of the disclosed compounds in displacing an ADEP analogue from ClpP. Briefly, the assay was performed in black 384 well, flat bottom, low volume plates (Greiner Bio-One, Monroe, N.C., catalog #784076). 20 μL of a pre-equilibrated (1 hr, room temperature) master mix (1 μM Sa-ClpP, 2% DMSO (v/v) and 50 nM FP probe in Tris*HCl, pH 8.0)) was pipetted into each well using a Well-Mate (Thermo Scientific, Waltham, Mass.). Sa-ClpP was prepared as described above for the ClpP activation assay. The FP probe was ADEP 2591 (structure shown above). The ADEP 2591 comprises a TAMRA fluorophore linked to a core based on modified ADEP 2378 via a short alkyl linker. Using pin transfer, approximately 0.4 μL (2% v/v DMSO) of each compound or control was added per well. After addition of compounds and controls, plates were allowed to incubate for an additional 120 minutes at room temperature. All assays were performed in triplicate. Polarization was monitored using an EnVision Multilabel reader (Perkin-Elmer, Waltham, Mass.) by exciting the FP probe at 530±25 nm, and monitoring fluorescence intensity of both parallel and perpendicular polarized light at 579±25 nm. Readout was in millipolarization units (mP).
# Signal gain and G factors were determined in wells containing 20 μM ADEP 2378, which had been previously verified (data not shown) as containing completely unbound ADEP 2591. Data collected was normalized to values obtained from positive (20 μM ADEP 2378) or negative (DMSO) controls. Curves were fit with non-linear regression using the equation “log [inhibitor]vs. Response-variable slope (four parameters)-symmetrical” in the program Prism 6 (GraphPad Software, La Jolla, Calif. USA, www.graphpad.com). The structures for ADEP 2378 and ADEP 2591 are shown above. ADEP 2378 is (E)-N-((S)-1-(((2R,6S,8aS,14aS,20S,23aS)-2,6-dimethyl-5,8,14,19,23-pentaoxooctadecahydro-1H,5H,14H,19H-pyrido[2,1-i]dipyrrolo[2,1-c:2′,1′-1][1]oxa[4,7,10,13]tetraazacyclohexadecin-20-yl)amino)-1-oxo-3-phenylpropan-2-yl)pent-2-enamide. ADEP 2591 is 5-(3-(3-((6S,9S,11aS,17S,20aS)-6,10-dimethyl-5,8,11,16,20-pentaoxo-17-((S)-2-((E)-pent-2-enamido)-3-phenylpropanamido)hexadecahydro-1H,5H,16H-dipyrrolo[2,1-c:2′,1′-1][1]oxa[4,7,10,13]tetraazacyclohexadecin-9-yl)propyl)thioureido)-2-(6-(dimethylamino)-3-(dimethyliminio)-3H-xanthen-9-yl)benzoate.
# [3] = Cytotoxicity assay, CellTiter-Glo cell viability; type: cell-based; details: African green monkey
# Protocol: Cytotoxicity was determined by determining the effect of compounds on cell viability. Vero (kidney epithelial cells; ATCC CCL-81) monolayers were trypsinized and 5000 cells/well were seeded (10-15% confluency) into white-wall, flat bottom 96 well microwell plates (Corning) using enriched Dulbecco's Modified Eagle's Medium (Hyclone: DMEM/High Glucose) containing 10% Fetal Bovine Serum (ATCC-30-2020). Plates were incubated overnight at 37° C. in the presence of 5% CO2. Drug-free media was then replaced with media containing serial dilutions of test compound or DMSO carrier. After an additional 72 hours of incubation, viability was indirectly measured using the CellTiter-Glo® Luminescent Cell Viability (Promega) assay. Assay plates were read at peak emission wavelength of 560 nm using a EnVision® Multilabel Plate Reader (Perkin Elmer) or PHERAstar FS Multilabel reader (BMG, Cary, N.C.). […] USA, www.graphpad.com]. For each experiment, compounds were tested in duplicate. IC50 values presented are the range of two biologically independent experiments.
# S. aureus USA 300 ΔClpP = assay: Minimal inhibitory concentration, microbroth dilution; type: cell-based, Staphylococcus aureus; details: ClpP inactivated strain
# Protocol: (§1) Minimal inhibitory concentrations (“MICs”) were determined using the microbroth dilution method according to Clinical Laboratory Standards Institute (CLSI; National, C.F. C. L. S., Methods for Dilution Antimicrobial Susceptibility Tests for Bacteria Grow aerobically-Seventh Edition: Approved Standard M7-A7, CLSI, Wayne, Pa., USA, 2008) and were read by visual inspection. Two fold serial dilutions of test compound in 100 μL of the appropriate broth media were first prepared in 96-well round bottom microtiter plates (Nalgene Nunc International, Rochester, N.Y., USA). An equivalent volume (100 μL) of bacterial broth inocula containing approximately 10^5 bacterial cfu/mL was added to each well to give final concentrations of test compound starting at 200 μM. The plates were then incubated aerobically at 37° C. All strains were incubated overnight. After incubations, in all cases the MIC was recorded as the lowest concentration of drug that prevented bacterial growth. The bacterial strains for which MIC was determined as described in Table 4.
# S. pneumoniae R6 = assay: as above; type: cell-based
# Protocol: (§2) Minimal inhibitory concentrations (“MICs”) were determined using the microbroth dilution method according to Clinical Laboratory Standards Institute (CLSI; National, C.F. C. L. S., Methods for Dilution Antimicrobial Susceptibility Tests for Bacteria Grow aerobically-Seventh Edition: Approved Standard M7-A7, CLSI, Wayne, Pa., USA, 2008) and were read by visual inspection. Two fold serial dilutions of test compound in 100 μL of the appropriate broth media were first prepared in 96-well round bottom microtiter plates (Nalgene Nunc International, Rochester, N.Y., USA). […] The plates were then incubated aerobically at 37° C. All strains were incubated overnight. After incubations, in all cases the MIC was recorded as the lowest concentration of drug that prevented bacterial growth. The bacterial strains for which MIC was determined as described in Table 4.
# S. pyogenes ATCC 700294 = assay: as above; type: cell-based; details: Streptococcus pyogenes, ATCC700294, read-out: Minimal Inhibitory Concentration S. pyogenes ATCC 700294
# Protocol: as §2
# S. aureus ATCC 29213 = assay: as above; type: cell-based; details: Staphylococcus aureus, ATCC29213, read-out: Minimal Inhibitory Concentration S. aureus ATCC 29213
# Protocol: as §1
# [4] = Streptococcus pneumoniae, R6; read-out: Minimal Inhibitory Concentration S. pneumoniae R6
# [5] = Vero kidney epithelial cells (ATCC CCL-81), Vero cells, 72 hours, read-out: Cytotoxicity IC50
# T1 sequence (Q2G036 whole entry): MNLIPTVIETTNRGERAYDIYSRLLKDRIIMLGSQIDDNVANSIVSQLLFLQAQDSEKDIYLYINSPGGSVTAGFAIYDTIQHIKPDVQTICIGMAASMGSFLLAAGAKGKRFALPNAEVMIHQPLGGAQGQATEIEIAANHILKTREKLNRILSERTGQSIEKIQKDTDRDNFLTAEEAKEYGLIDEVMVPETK
Compound,EC50 (Sa-ClpP [1]) [µM],IC50 (Sa-ClpP [2]) [µM],IC50 at 72 h [3] [µM],Minimal Inhibitory Concentration S. aureus USA 300 ΔClpP (S. aureus USA 300 ΔClpP) [µM],MIC (S. pneumoniae R6; [4]) [µM],"IC50 at 72 h [3, 5] [µM]",EC50 (Sa-ClpP [1]; read-out: ClpP Activation EC50 (converted)) [µM],"IC50 (Sa-ClpP [2]; 1 μM Sa-ClpP, 50 nM FP probe ADEP 2591, read-out: ADEP Displacement IC50) [µM]","IC50 at 72 h ([3]; Vero cells, 72 hours, read-out: Cytotoxicity IC50) [µM]","MIC (S. pneumoniae R6; Streptococcus pneumoniae, R6, read-out: Minimal Inhibitory Concentration S. pneumoniae R6) [µM]",MIC (S. pyogenes ATCC 700294) [µM],MIC (S. aureus ATCC 29213) [µM]
"C[C@H]1CC2C(=O)O[C@@H](C)[C@H](NC(=O)[C@H](Cc3cc(F)cc(F)c3)NC(=O)Nc3ccc(OC(F)(F)F)cc3)C(=O)N3CCCC3C(=O)N3CCOCC3C(=O)N[C@@H](C)C(=O)N2C1 (stereo partly drawn) [Compound 34, (S)-3-(3,5-Difluorophenyl)-2-(3-(4-(Trifluoromethoxy)Phenyl)Ureido)-N-((6aS,12S,13S,15aS,17S,21S,23aS)-13,17,21-Trimethyl-6,11,15,20,23-Pentaoxooctadecahydro-6H,11H,15H-[1,4]Oxazino[3,4-I]Dipyrrolo[2,1-C:2′,1′-L][1]Oxa[4,7,10,13]Tetraazacyclohexadecin-12-Yl)Propanamide] ({NH(4-OCF3-phenyl)-CO}-[Phe(3,5-F2)][aThr][ξP][X1]A[ξPro(4S-Me)]; ester 2-C)",0.33 ± 0.01,6.1 ± 0.4,26 ± 2.6,50,0.049,,,,,,,
"C[C@@H]1CC2C(=O)O[C@@H](C)[C@H](NC(=O)[C@H](Cc3cc(F)cc(F)c3)NC(=O)Nc3ccc(OC(F)(F)F)cc3)C(=O)N3CCCC3C(=O)N3CCCCC3C(=O)N[C@@H](C)C(=O)N2C1 (stereo partly drawn) [Compound 40, (S)-3-(3,5-Difluorophenyl)-2-(3-(4-(Trifluoromethoxy)Phenyl)Ureido)-N-((2R,6S,8aS,14aS,20S,21S,23aS)-2,6,21-Trimethyl-5,8,14,19,23-Pentaoxooctadecahydro-1H,5H,14H,19H-Pyrido [2,1-I]Dipyrrolo[2,1-C:2′,1′-L][1]Oxa[4,7,10,13]Tetraazacyclohexadecin-20-Yl)Propanamide]",0.36 ± 0.03,12.7 ± 0.7,43.8 ± 5.1,25,0.1,,,,,,,
"C[C@H]1CC2C(=O)OC[C@H](NC(=O)[C@H](Cc3ccccc3)NC(=O)Nc3ccc(OC(F)(F)F)cc3)C(=O)N3CCCC3C(=O)N3CCCCC3C(=O)N[C@@H](C)C(=O)N2C1 (stereo partly drawn) [Compound 44, (S)—N-((2S,6S,8aS,14aS,20S,23aS)-2,6-Dimethyl-5,8,14,19,23-Pentaoxooctadecahydro-1H,5H,14H,19H-Pyrido[2,1-I]Dipyrrolo[2,1-C:2′,1′-L][1]Oxa[4,7,10,13]Tetraazacyclohexadecin-20-Yl)-3-Phenyl-2-(3-(4-(Trifluoromethoxy)Phenyl)Ureido)Propanamide]",0.28 ± 0.01,6.76 ± 0.3,,50,0.1,83.8 ± 6.6,,,,,,
"Cc1ccc(NC(=O)N[C@@H](Cc2cc(F)cc(F)c2)C(=O)N[C@H]2COC(=O)C3C[C@H](C)CN3C(=O)[C@H](C)NC(=O)C3CCCCN3C(=O)C3CCCN3C2=O)cc1 (stereo partly drawn) [Compound 45, (S)-3-(3,5-Difluorophenyl)-N-((2S,6S,8aS,14aS,20S,23aS)-2,6-Dimethyl-5,8,14,19,23-Pentaoxooctadecahydro-1H,5H,14H,19H-Pyrido[2,1-I]Dipyrrolo[2,1-C:2′,1′-L][1]Oxa[4,7,10,13]Tetraazacyclohexadecin-20-Yl)-2-(3-(P-Tolyl)Ureido)Propanamide]",,,,100,,,0.54 ± 0.03,6.62 ± 0.2,56.8 ± 6.7,0.1,0.4,0.4
"C[C@H]1CC2C(=O)OC[C@H](NC(=O)[C@H](Cc3cc(F)cc(F)c3)NC(=O)Nc3ccc4c(c3)OCO4)C(=O)N3CCCC3C(=O)N3CCCCC3C(=O)N[C@@H](C)C(=O)N2C1 (stereo partly drawn) [Compound 46, (S)-2-(3-(Benzo[D][1,3]Dioxol-5-Yl)Ureido)-3-(3,5-Difluorophenyl)-N-((2S,6S,8aS,14aS,20S,23aS)-2,6-Dimethyl-5,8,14,19,23-Pentaoxooctadecahydro-1H,5H,14H,19H-Pyrido[2,1-I]Dipyrrolo[2,1-C:2′,1′-L][1]Oxa[4,7,10,13]Tetraazacyclohexadecin-20-Yl)Propanamide]",0.32 ± 0.02,4.61 ± 0.2,,200,0.4,71.8 ± 5.4,,,,,,
